Data as given in ChEMBL document CHEMBL4118077, “Synthesis of thiazole linked indolyl-3-glyoxylamide derivatives as tubulin polymerization inhibitors” (Eur J Med Chem, 2017).
Each block holds one compound with its values, some of them ahead of it. Active and inactive are the calls of the source. The calls are words filed in the database; no cut-off is given here.

Legend:
DU-145 [1] = assay: Antiproliferative activity against human DU145 cells after 48 hrs by MTT assay; type: functional, cell-based; details: DU-145, 48 h
A549 = assay: Antiproliferative activity against human A549 cells after 48 hrs by MTT assay; type: functional, cell-based; details: A549, 48 h
PC-3 = assay: Antiproliferative activity against human PC3 cells after 48 hrs by MTT assay; type: functional, cell-based; details: PC-3, 48 h
HCT-15 = assay: Antiproliferative activity against human HCT15 cells after 48 hrs by MTT assay; type: functional, cell-based; details: HCT-15, 48 h
Sus scrofa = species: Sus scrofa; assay: Inhibition of porcine brain tubulin polymerization at 5 uM measured for 1 hr by fluorescence assay relative to control
DU-145 [2] = assay: Induction of mitochondrial membrane potential loss in human DU145 cells assessed as depolarized cell population at 400 nM after 24 hrs by JC-1 staining based flow cytometry (reference value: 22.28%); type: functional
DU-145 [3] = assay: Induction of mitochondrial membrane potential loss in human DU145 cells assessed as depolarized cell population at 200 nM after 24 hrs by JC-1 staining based flow cytometry (reference value: 22.28%); type: functional
DU-145 [4] = assay: Cell cycle arrest in human DU145 cells assessed as accumulation at G0/G1 phase at 100 nM after 24 hrs by propidium iodide staining based flow cytometry (reference value: 63.77%); type: functional
DU-145 [5] = assay: Cell cycle arrest in human DU145 cells assessed as accumulation at S phase at 200 nM after 24 hrs by propidium iodide staining based flow cytometry (reference value: 14.8%); type: functional
DU-145 [6] = assay: Cell cycle arrest in human DU145 cells assessed as accumulation at G2/M phase at 100 nM after 24 hrs by propidium iodide staining based flow cytometry (reference value: 25.88%); type: functional
DU-145 [7] = assay: Cell cycle arrest in human DU145 cells assessed as accumulation at G2/M phase at 400 nM after 24 hrs by propidium iodide staining based flow cytometry (reference value: 25.88%); type: functional
DU-145 [8] = assay: Antimigratory activity against human DU145 cells assessed as inhibition of migration to scratch area at 100 nM after 24 hrs by phase contrast microscopic method relative to control; type: functional; details: DU-145, 24 h
DU-145 [9] = assay: Induction of apoptosis in human DU145 cells assessed as live cells at 200 nM after 24 hrs by Annexin V-FITC/propidium iodide staining based flow cytometry (reference value: 85.71%); type: functional
DU-145 [10] = assay: Cell cycle arrest in human DU145 cells assessed as accumulation at S phase at 400 nM after 24 hrs by propidium iodide staining based flow cytometry (reference value: 14.8%); type: functional
DU-145 [11] = assay: Induction of morphological changes in human DU145 cells assessed as nuclear condensation at 100 to 200 nM after 48 hrs by DAPI staining based fluorescence microscopic method; type: functional, cell-based
DU-145 [12] = assay: Induction of apoptosis in human DU145 cells assessed as late apoptotic cells at 200 nM after 24 hrs by Annexin V-FITC/propidium iodide staining based flow cytometry (reference value: 6.55%); type: functional
DU-145 [13] = assay: Induction of apoptosis in human DU145 cells assessed as early apoptotic cells at 400 nM after 24 hrs by Annexin V-FITC/propidium iodide staining based flow cytometry (reference value: 5.92%); type: functional
DU-145 [14] = assay: Induction of apoptosis in human DU145 cells assessed as live cells at 400 nM after 24 hrs by Annexin V-FITC/propidium iodide staining based flow cytometry (reference value: 85.71%); type: functional
DU-145 [15] = assay: Induction of morphological changes in human DU145 cells assessed as membrane blebbing after 48 hrs by acridine orange/ethidium bromide staining based fluorescence microscopic method; type: functional, cell-based
DU-145 [16] = assay: Cell cycle arrest in human DU145 cells assessed as accumulation at subG1 phase at 100 nM after 24 hrs by propidium iodide staining based flow cytometry (reference value: 0.43%); type: functional
DU-145 [17] = assay: Cell cycle arrest in human DU145 cells assessed as accumulation at G0/G1 phase at 200 nM after 24 hrs by propidium iodide staining based flow cytometry (reference value: 63.77%); type: functional
DU-145 [18] = assay: Cell cycle arrest in human DU145 cells assessed as accumulation at G2/M phase at 200 nM after 24 hrs by propidium iodide staining based flow cytometry (reference value: 25.88%); type: functional
DU-145 [19] = assay: Induction of apoptosis in human DU145 cells assessed as necrotic cells at 400 nM after 24 hrs by Annexin V-FITC/propidium iodide staining based flow cytometry (reference value: 1.82%); type: functional
DU-145 [20] = assay: Induction of apoptosis in human DU145 cells assessed as necrotic cells at 200 nM after 24 hrs by Annexin V-FITC/propidium iodide staining based flow cytometry (reference value: 1.82%); type: functional
DU-145 [21] = assay: Induction of morphological changes in human DU145 cells assessed as apoptotic body formation after 48 hrs by acridine orange/ethidium bromide staining based fluorescence microscopic method; type: functional, cell-based
DU-145 [22] = assay: Induction of mitochondrial membrane potential loss in human DU145 cells assessed as intact membrane cell population at 200 nM after 24 hrs by JC-1 staining based flow cytometry (reference value: 77.24%); type: functional
DU-145 [23] = assay: Cell cycle arrest in human DU145 cells assessed as accumulation at G0/G1 phase at 400 nM after 24 hrs by propidium iodide staining based flow cytometry (reference value: 63.77%); type: functional
DU-145 [24] = assay: Induction of morphological changes in human DU145 cells assessed as cell shrinkage after 48 hrs by acridine orange/ethidium bromide staining based fluorescence microscopic method; type: functional
RWPE-1 = assay: Cytotoxicity against human RWPE1 cells assessed as reduction in cell viability after 48 hrs by MTT assay; type: cell-based; details: RWPE-1, 48 h
DU-145 [25] = assay: Induction of intracellular mitochondrial superoxide generation in human DU145 cells after 48 hrs by MitoSOX staining based fluorescence microscopic method; type: functional, cell-based
DU-145 [26] = assay: Antimigratory activity against human DU145 cells assessed as inhibition of migration to scratch area after 24 hrs by phase contrast microscopic method; type: functional, cell-based
DU-145 [27] = assay: Cell cycle arrest in human DU145 cells assessed as accumulation at subG1 phase at 400 nM after 24 hrs by propidium iodide staining based flow cytometry (reference value: 0.43%); type: functional
DU-145 [28] = assay: Induction of apoptosis in human DU145 cells assessed as early apoptotic cells at 200 nM after 24 hrs by Annexin V-FITC/propidium iodide staining based flow cytometry (reference value: 5.92%); type: functional
DU-145 [29] = assay: Antimigratory activity against human DU145 cells assessed as inhibition of migration to scratch area at 400 nM after 24 hrs by phase contrast microscopic method relative to control; type: functional; details: DU-145, 24 h
DU-145 [30] = assay: Induction of mitochondrial membrane potential loss in human DU145 cells assessed as intact membrane cell population at 400 nM after 24 hrs by JC-1 staining based flow cytometry (reference value: 77.24%); type: functional
DU-145 [31] = assay: Induction of mitochondrial membrane potential loss in human DU145 cells after 24 hrs by JC-1 staining based flow cytometry; type: functional, cell-based
DU-145 [32] = assay: Induction of morphological changes in human DU145 cells assessed as nuclear fragmentation at 100 to 200 nM after 48 hrs by DAPI staining based fluorescence microscopic method; type: functional, cell-based
DU-145 [33] = assay: Cell cycle arrest in human DU145 cells assessed as accumulation at G2/M phase after 24 hrs by propidium iodide staining based flow cytometry; type: functional
DU-145 [34] = assay: Induction of apoptosis in human DU145 cells after 24 hrs by Annexin V-FITC/propidium iodide staining based flow cytometry; type: functional, cell-based
DU-145 [35] = assay: Induction of apoptosis in human DU145 cells assessed as late apoptotic cells at 400 nM after 24 hrs by Annexin V-FITC/propidium iodide staining based flow cytometry (reference value: 6.55%); type: functional
DU-145 [36] = assay: Antimigratory activity against human DU145 cells assessed as inhibition of migration to scratch area at 200 nM after 24 hrs by phase contrast microscopic method relative to control; type: functional; details: DU-145, 24 h
DU-145 [37] = assay: Cell cycle arrest in human DU145 cells assessed as accumulation at subG1 phase at 200 nM after 24 hrs by propidium iodide staining based flow cytometry (reference value: 0.43%); type: functional
DU-145 [38] = assay: Cell cycle arrest in human DU145 cells assessed as accumulation at S phase at 100 nM after 24 hrs by propidium iodide staining based flow cytometry (reference value: 14.8%); type: functional

SMILES: COc1ccc2sc(NC(=O)Cn3cc(C(=O)C(=O)NC4CC4)c4ccccc43)nc2c1
IC50 (DU-145 [1]): 5.5 µM | IC50 (A549): > 50 µM | IC50 (PC-3): 9.4 µM | IC50 (HCT-15): > 50 µM

SMILES: Cc1ccc(-c2csc(NC(=O)Cn3cc(C(=O)C(=O)Nc4ccccc4)c4cc(Br)ccc43)n2)cc1
IC50 (DU-145 [1]): 10.2 µM | IC50 (A549): > 50 µM | IC50 (PC-3): > 50 µM | IC50 (HCT-15): > 50 µM

SMILES: COc1ccc2sc(NC(=O)CCn3cc(C(=O)C(=O)N4CCCCC4)c4ccccc43)nc2c1
IC50 (DU-145 [1]): 12.3 µM | IC50 (A549): > 50 µM | IC50 (PC-3): 15.3 µM | IC50 (HCT-15): > 50 µM

SMILES: COc1ccc2sc(NC(=O)Cn3cc(C(=O)C(=O)N4CCCCC4)c4ccccc43)nc2c1
IC50 (DU-145 [1]): 6.4 µM | IC50 (A549): > 50 µM | IC50 (PC-3): 4.2 µM | inhibition (Sus scrofa): 38.5% | IC50 (HCT-15): > 50 µM

SMILES: O=C(Cn1cc(C(=O)C(=O)Nc2ccccc2)c2ccccc21)Nc1nc(-c2ccccc2)cs1
IC50 (DU-145 [1]): 34.3 µM | IC50 (A549): > 50 µM | IC50 (PC-3): > 50 µM | IC50 (HCT-15): > 50 µM

SMILES: Cc1ccc(-c2csc(NC(=O)CCn3cc(C(=O)C(=O)N4CCCCC4)c4ccccc43)n2)cc1
IC50 (DU-145 [1]): > 50 µM | IC50 (A549): > 50 µM | IC50 (PC-3): > 50 µM | IC50 (HCT-15): > 50 µM

SMILES: O=C(Cn1cc(C(=O)C(=O)NC2CC2)c2ccccc21)Nc1nc(-c2ccccc2)cs1
IC50 (DU-145 [1]): > 50 µM | IC50 (A549): 41.8 µM | IC50 (PC-3): > 50 µM

SMILES: COc1ccc2sc(NC(=O)Cn3cc(C(=O)C(=O)Nc4ccccc4)c4cc(Br)ccc43)nc2c1
IC50 (DU-145 [1]): 5.6 µM | IC50 (A549): > 50 µM | IC50 (PC-3): 13.6 µM | inhibition (Sus scrofa): 23.3% | IC50 (HCT-15): 12.5 µM

The next compounds have a lower IC50 (DU-145 [1]) than those just listed; values first:

IC50 (DU-145 [1]): 5.15 µM | IC50 (A549): 20.9 µM | IC50 (PC-3): > 50 µM | inhibition (Sus scrofa): 23.5% | IC50 (HCT-15): > 50 µM
SMILES: O=C(Cn1cc(C(=O)C(=O)Nc2ccccc2)c2ccccc21)Nc1nccs1

IC50 (DU-145 [1]): 0.093 µM | IC50 (A549): 2.1 µM | IC50 (PC-3): 0.361 µM | inhibition (Sus scrofa): 68.5% | IC50 (HCT-15): 0.18 µM
SMILES: COc1ccc2sc(NC(=O)Cn3cc(C(=O)C(=O)Nc4ccccc4)c4ccccc43)nc2c1
Activity (DU-145 [2]): 64.65% | Activity (DU-145 [3]): 57.05% | Activity (DU-145 [4]): 47.69% | Activity (DU-145 [5]): 8.26% | Activity (DU-145 [6]): 30.15% | Activity (DU-145 [7]): 50.9% | inhibition at 0.1 µM (DU-145 [8]): 74.8% | Activity (DU-145 [9]): 84.72% | Activity (DU-145 [10]): 5.51% | Activity (DU-145 [11]): Active | Activity (DU-145 [12]): 5.81% | Activity (DU-145 [13]): 16.84% | Activity (DU-145 [14]): 45.47% | Activity (DU-145 [15]): Dose-dependent effect | Activity (DU-145 [16]): 17.37% | Activity (DU-145 [17]): 51.89% | Activity (DU-145 [18]): 34.07% | Activity (DU-145 [19]): 4.06% | Activity (DU-145 [20]): 3.58% | Activity (DU-145 [21]): Dose-dependent effect | Activity (DU-145 [22]): 42.39% | Activity (DU-145 [23]): 16.32% | Activity (DU-145 [24]): Dose-dependent effect | IC50 (RWPE-1): 0.71 µM | Activity (DU-145 [25]): Dose-dependent effect | inhibition (DU-145 [26]): Dose-dependent effect | Activity (DU-145 [27]): 26.89% | Activity (DU-145 [28]): 5.89% | inhibition at 0.4 µM (DU-145 [29]): 34.8% | Activity (DU-145 [30]): 34.21% | Activity (DU-145 [31]): Dose-dependent effect | Activity (DU-145 [32]): Active | Activity (DU-145 [33]): Dose-dependent effect | Activity (DU-145 [34]): Dose-dependent effect | Activity (DU-145 [35]): 33.63% | inhibition at 0.2 µM (DU-145 [36]): 44% | Activity (DU-145 [37]): 5.88% | Activity (DU-145 [38]): 5.8%

IC50 (DU-145 [1]): 0.14 µM | IC50 (A549): 6.3 µM | IC50 (PC-3): 6.1 µM | inhibition (Sus scrofa): 58.4% | IC50 (HCT-15): 2.5 µM
SMILES: CCOC(=O)c1nc(NC(=O)Cn2cc(C(=O)C(=O)Nc3ccccc3)c3ccccc32)sc1C
